Assay results as given in paper PMC12194305, “Assessing Bioconcentration and Biotransformation of BDE-47 In Vitro: The Relevance of Bioavailable and Intracellular Concentrations” (Journal of Xenobiotics, 2025).

Columns and labels:
ZFL cells = test: Cell exposure for bioaccumulation: Ccell, Cmedium and in vitro BCF (ratio and toxicokinetic fit); assay type: cell-based, zebrafish; settings: for BCFexp, 24 h / BCFexp, 48 h / BCFexp, 72 h: Ccell,exp/Cmedium
Protocol: A total of 2 × 10^6 ZFL cells were plated in P100 glass dishes and incubated for 24 h under standard culture conditions. Subsequently, the culture medium was replaced with a contaminated medium, which, according to the cell viability assay, maintained viability above 70% by the end of the exposure period (Section 2.3). Cells were exposed to 1.8 and 2.6 mg⋅L^−1 for 24, 48 and 72 h, in two independent experiments. Parallel experiments were conducted under identical conditions to assess losses: one set included cells without contaminated medium, and another consisted of contaminated medium without cells (“no cells”). The obtained pellets were collected from all exposure time, dried under a gentle stream of nitrogen and weighed on a precision analytical balance (±0.00001 g). Finally, the dried cell pellets and their corresponding medium collected at all exposure times, including the starting medium (“t = 0 h”), were stored at −20 °C until analysis.
Extraction of BDE-47 and its metabolites was performed simultaneously for each of the samples, cells, and exposure media. Finally, 500 μL of exposure medium was extracted with 500 μL of hexane: MTBE mixture (1:1) shaken vigorously with a vortex for 30 s. For cells, the pellet obtained (~5 mg) was treated with same solvents but assisted with an ultrasound probe for 1 min at 30% of amplitude and a pulse on/off, with 2 s/5 s for cell samples. The internal standards (IS) BDE-99 and TCS had been previously added. The mixture was centrifuged for 10 min at 10,000 rpm. The organic phase was separated, and the extraction step was repeated. Remaining extracts were evaporated to dryness under a gentle stream of nitrogen and reconstituted in 200 μL isooctane. A total of 80 μL of the volume obtained was derivatized with 20 μL of MTBSTFA at 70 °C for 30 min in the oven and injected into GC-μECD-MS for the OH-BDE quantification. PBDEs and MeO-BDEs were determined by direct injection of the remaining volume of isooctane extracts into the GC-µECD-MS, because PBDEs are not stable after the derivatization process. Due to the difference in concentration in the samples of the metabolites and BDE-47, a double determination was performed and diluted with isooctane for the detection of the latter, so that it was interpolated on the same calibration curve.
The GC–MS-µECD system was used for the separation and determination of BDE-47 and its metabolites. The MS was used for the identification and the µECD for their quantification. Both detectors operate simultaneously, thanks to the use of a flow splitter placed at the end of the chromatographic column. Sample (1 μL) were injected in splitless mode at 280 °C. Helium was used as carrier gas at a constant pressure of 22 psi. Column temperature was programmed to increase from 130 °C (1 min) to 222 °C (1 min) at a rate of 90 °C·min^−1, then to 245 °C (1 min) at 1 °C·min^−1 and finally to 280 °C (8 min) at 45 °C·min^−1. The μECD temperature was set at 320 °C and nitrogen was used as makeup gas (30 mL·min^−1). The flow ratio of the splitter was 1:1, thanks to the helium input and the restrictor length of each detector, according to the manual supplied by Agilent Technologies. m/z values for the SIM program are collected in Table S1.
The first quantitative estimation of BCF was carried out according to the definition of BCF in the official OECD 305 guideline; that is, the ratio between the chemical concentration in the cells (Ccell) and the chemical concentration of the surrounding medium (Cmedium). As explained earlier, Ccell can be determined experimentally (Ccell,exp) or by MBM (Ccell,MBM). Both these terms can be related to the experimentally determined concentration in the medium (Cmedium), the free concentration experimentally determined (Cfree,exp) or the free concentration estimated using MBM (Cfree,MBM). […]

[1] = cited from earlier work
zebrafish = test: IVIVE-BCF model with zebrafish default parameters; assay type: in vitro ADME; settings: for BCFIVIVE, ZF: ZFL cells, zebrafish parameters
Source text: One of the objectives was to assess whether cell lines can be used within the BCF-IVIVE model, relying on intrinsic clearance in vitro, to estimate the biotransformation rate which is subsequently extrapolated to adult fish. This approach is based on the model developed by Nichols et al. and is endorsed by the OECD guideline 319A [10] and OECD 2018a. Briefly, the log10-transformed substrate experimental concentrations in the medium (Cmed) were plotted against time, and the first-order elimination rate constant (ke, h^−1) was determined as −2.3 × slope of the log-linear decline. Black et al. indicate that a correction to the elimination rate constant (ke) should be applied when the following conditions are met: (i) abiotic losses from volatilization, calculated by comparing the recovery of negative control samples (“no cells”) at each exposure time to the initial time, fall outside the acceptable range of 80–120%, (ii) the loss process follows first order kinetics, and (iii) the ratio of ke and the volatilization rate constant (kvolat) is below 10 (ke/kvolat < 10). Then, the constant corrected for losses due to volatilization (ke,loss) was determined as −2.3 × the difference of the slopes of the sample and the loss control of the log-linear descent. The in vitro constant was then extrapolated to obtain an in vivo metabolization constant (kMET). This was done using experimental cell concentration (CHEP, 10^6 cells/mL) and default parameters derived from rainbow trout. In this study, in addition to estimating BCF with the official model parameters derived from rainbow trout (BCFIVIVE,RT), BCF was also estimated with the literature-derived parameters for zebrafish (BCFIVIVE,ZF), due to the use of ZFL cells. Finally, the BCF was estimated by the ratio of concentration in the organism to concentration in the medium, following the standardized model. The concentration in the organism was predicted using the one-compartment model given by Arnot and Gobas, which includes the rate constants describing chemical uptake (k1), loss through the gills (k2), fecal egestion (kE), growth rate (kG) and metabolization rate (kMET). Except for kMET, which is estimated experimentally in vitro, the rest are only dependent on the log KOW of the compound. On the other hand, due to the use of cell lines, the free concentration estimated was introduced instead of the total concentration in the medium (CW,TOT).

[2] = Cnominal 1.8 mg·L^−1, first-order toxicokinetic fit k1/k2

Brc1ccc(Oc2ccc(Br)cc2Br)c(Br)c1 [BDE-47, 2,2′,4,4′-tetrabromodiphenyl ether]
Recovery in the mass balance (ZFL cells; 24 h, 1.8 mg·L^−1, BDE-47 plus metabolites in cells, medium and losses): 77% | Recovery in the mass balance (ZFL cells; 24 h, 2.6 mg·L^−1): 79% | Recovery in the mass balance (ZFL cells; 48 h, 1.8 mg·L^−1): 70% | Recovery in the mass balance (ZFL cells; 48 h, 2.6 mg·L^−1): 82% | Recovery in the mass balance (ZFL cells; 72 h, 1.8 mg·L^−1): 74% | Recovery in the mass balance (ZFL cells; 72 h, 2.6 mg·L^−1): 97% | average decrease of Cmedium over time from nominal concentration (ZFL cells; Cnominal 1.8 mg·L^−1): 79% | BCFexp, 24 h (ZFL cells; Cnominal 1.8 mg·L^−1): 50 L/kg | BCFexp, 48 h (ZFL cells; Cnominal 1.8 mg·L^−1): 83 L/kg | BCFexp, 72 h (ZFL cells; Cnominal 1.8 mg·L^−1): 100 L/kg | BCFk Ccell exp/Cfree,exp (ZFL cells; [2]): 74,300 L·kg^−1 | BCFk Ccell exp/Cw (ZFL cells; [2]): 30 L/kg | average decrease of Cmedium over time from nominal concentration (ZFL cells; Cnominal 2.6 mg·L^−1): 33% | BCFexp, 24 h (ZFL cells; Cnominal 2.6 mg·L^−1): 51 L/kg | BCFexp, 48 h (ZFL cells; Cnominal 2.6 mg·L^−1): 55 L/kg | BCFexp, 72 h (ZFL cells; Cnominal 2.6 mg·L^−1): 80 L/kg | BCFk Ccell exp/Cfree,exp (ZFL cells; Cnominal 2.6 mg·L^−1, first-order toxicokinetic fit k1/k2): 63,435 L·kg^−1 | Henry's law constant (KH) ([1]; at 30 °C): 1.79 ± 0.21 Pa·m^3·mol^−1 | log Kow [1]: 6.81 | log DPDMS/medium ([1]; partition constant PDMS fiber/medium): 5.84 | CLH (zebrafish; 1.8 mg·L-1, ZF): 2.01 mL/h/kg | CLIN VITRO, INT (zebrafish; 1.8 mg·L-1, ZF): 0.0220 mL/h/106 cells | kMET (zebrafish; 1.8 mg·L-1, ZF): 0.0022 day⁻¹ | CLH (zebrafish; 2.6 mg·L-1, ZF): 0.333 mL/h/kg | CLIN VITRO, INT (zebrafish; 2.6 mg·L-1, ZF): 0.0037 mL/h/106 cells | kMET (zebrafish; 2.6 mg·L-1, ZF): 0.0004 day⁻¹ | BCFIVIVE, ZF (zebrafish; Cnominal 1.8 mg·L^−1): 13,885 L·kg^−1 | BCFIVIVE, ZF (zebrafish; Cnominal 2.6 mg·L^−1): 14,926 L·kg^−1
